Patent US20160206688A1, “METHODS FOR TREATING BACTEREMIA AND OSTEOMYELITIS USING ORITAVANCIN” (THE MEDICINES COMPANY, priority 2013, published 2016)
Converted amounts (≈) assume the structure as drawn. Blank lines part the entries; values can stand above or below the molecule they belong to.

Assays:
[1] = tested on: Coagulase-negative staphylococci; experiment: Broth microdilution MIC, European bacteraemia isolates 2010-2012; assay type: cell-based, coagulase-negative staphylococci (CoNS); conditions: Coagulase-negative staphylococci (646); for MIC50: read-out: MIC 50%; for MIC90: read-out: MIC 90%
Method: (§1) A total of 2,904 clinical strains responsible for documented bacteremia among unique hospitalized patients in 38 hospitals in 11 European Union countries. Israel, Russia, Turkey and Ukraine were included in this study (2010-2012). Isolates were submitted to a central monitoring laboratory (JMI Laboratories, North Liberty. Iowa. USA), following previously established protocols. Bacterial species identification was performed by using an automated system (Vitek®2; bioMèrieux, Hazelwood, Mo., USA) or conventional biochemical algorithms, as required.
(§2) Isolates were tested for susceptibility by broth microdilution methods following the Clinical and Laboratory Standards Institute (CLSI; M07-A9, 2012) document. Susceptibility testing was performed in cation-adjusted Mueller-Hinton broth (CA-MHB) using dry-form panels manufactured by Thermo Fisher Scientific, formerly TREK Diagnostics Systems/Sensititre (Cleveland. Ohio, USA). These panels provide results equivalent to the CLSI-approved broth microdilution method supplemented with 0.002% polysorbate-80.
(§3) Quality assurance was performed by concurrent testing of CLSI-recommended (M100-S23, 2013) strains: E. faecalis ATCC 29212 and S. aureus ATCC 29213. Interpretation of comparator MIC results was in accordance with published CLSI (M100-S23) and European Committee on Antimicrobial Susceptibility Testing (EUCAST, 2013) criteria.

E. faecium [2] = experiment: as above; assay type: cell-based, Enterococcus faecium; conditions: for % Susceptible, CLSI / % Resistant, CLSI: CLSI M100-S23 breakpoints; for MIC50 / MIC90: Enterococcus faecium; for MIC50 / MIC90 / MIC Range / MIC 50%: Table 2; for MIC50: read-out: MIC 50%; for MIC90: read-out: MIC 90%; for % susceptible: VanA-phenotype E. faecium, criteria not stated; for % Resistant, EUCAST / % Susceptible, EUCAST: EUCAST 2013 breakpoints
Method: as §1, §2, §3

S. pyogenes = experiment: Broth microdilution MIC, US isolates 2011-2012, blood vs non-blood; assay type: cell-based
Method: (§4) 527 E. faecalis, 176 E. faecium, and 790 BHS (335 S. pyogenes and 455 S. agalactiae) clinical, single patient, non-consecutive isolates were collected in 2011-2012 from 46 sites geographically distributed across the United States. The MICs were determined by broth microdilution testing performed in accordance with CLSI M7 and M100 guidelines. From the resulting database, this analysis focused on the activities of ORI, vancomycin (VAN), daptomycin (DAP), and linezolid (LZD) according to specimen source.

E. faecalis [3] = experiment: as above; assay type: cell-based
Method: as §4

E. faecium [4] = experiment: as above; assay type: cell-based
Method: as §4

S. agalactiae = experiment: as above; assay type: cell-based
Method: as §4

VRE = experiment: Susceptibility of the subject's blood culture isolate (treatment history); assay type: cell-based
Text: 11, 2013; the plan was for at least 8 weeks of antibiotic therapy.

S. aureus = experiment: Broth microdilution MIC, European bacteraemia isolates 2010-2012; assay type: cell-based; conditions: S. aureus Methicillin-resistant (1,708); for % Resistant, EUCAST / % Susceptible, EUCAST: EUCAST 2013 breakpoints; for MIC50 / MIC90: Staphylococcus aureus; for MIC50 / MIC90 / MIC Range: Table 2; for MIC50: read-out: MIC 50%; for MIC90: read-out: MIC 90%
Method: as §1, §2, §3

MDR SA = experiment: Microdilution MIC against MDR SA by specimen source; assay type: cell-based, S. aureus
Method: 456 clinical, single-patient, non-consecutive, MDR SA isolates from the known specimen sources collected in 2011-2012 were analyzed. MDR was defined as resistant to ≧3 of the following: erythromycin, clindamycin, gentamicin, levofloxacin, and trimethoprim/sulfamethoxazole. 382 were MRSA and 74 were MSSA. MICs were determined by microdilution testing in accordance with CLSI M7 and M100 guidelines. Although other comparator drugs were tested, this analysis focuses on the activities of ORI, VAN, DAP, and LZD.

E. faecalis [5] = experiment: Broth microdilution MIC, European bacteraemia isolates 2010-2012; assay type: cell-based, Enterococcus faecalis; conditions: for % susceptible: E. faecalis strains, criteria not stated; for MIC50 / MIC90: Enterococcus faecalis; for MIC50 / MIC90 / MIC Range: Table 2; for MIC50: read-out: MIC 50%; for MIC90: read-out: MIC 90%; for MIC Range: includes four VanA-phenotype strains
Method: as §1, §2, §3

[6] = E. faecium Vancomycin-resistant (VanA-phenotype) (153)
[7] = E. faecium Vancomycin-susceptible (257)
[8] = E. faecalis (445), CLSI M100-S23 breakpoints
[9] = E. faecalis (445), EUCAST 2013 breakpoints

MIC Range ([1]; Table 2): ≦0.06-2 mg/L
MIC50 ([1]; Table 2): 0.25 µg/mL (≈ 0.154 µM)
MIC90 ([1]; Table 2): 0.5 µg/mL (≈ 0.309 µM)
MIC50 (E. faecium [2]; [6]): 2 µg/mL (≈ 1.23 µM)
MIC90 (E. faecium [2]; [6]): 2 µg/mL (≈ 1.23 µM)
MIC90 (E. faecium [2]; [7]): 2 µg/mL (≈ 1.23 µM)
MIC Range (E. faecium [2]; [6]): 0.25 to 4 µg/mL
MIC 50% (E. faecium [2]; [7]): 2 µg/mL (≈ 1.23 µM)
MIC Range (E. faecium [2]; [7]): 0.12 to 4 µg/mL
MIC90 (S. pyogenes; Blood, N 53): 0.06 µg/mL (≈ 0.037 µM)
MIC90 (S. pyogenes; Non-Blood, N 282): 0.06 µg/mL (≈ 0.037 µM)
MIC90 (E. faecalis [3]; Blood, N 116): 2 µg/mL (≈ 1.23 µM)
MIC90 (E. faecalis [3]; Non-Blood, N 411): 2 µg/mL (≈ 1.23 µM)
MIC90 (E. faecium [4]; Blood, N 84): 4 µg/mL (≈ 2.47 µM)
MIC90 (E. faecium [4]; Non-Blood, N 92): 4 µg/mL (≈ 2.47 µM)
MIC90 (S. agalactiae; Blood, N 100): 0.25 µg/mL (≈ 0.154 µM)
MIC90 (S. agalactiae; Non-Blood, N 355): 0.25 µg/mL (≈ 0.154 µM)
MIC (VRE; 2012 December): 6 µg/mL (≈ 3.7 µM)
MIC (VRE; 2012 July): 4 µg/mL (≈ 2.47 µM)
MIC50 (S. aureus): 0.25 µg/mL (≈ 0.154 µM)
MIC90 (S. aureus): 0.5 µg/mL (≈ 0.309 µM)
MIC Range (S. aureus): 0.12 to 1 µg/mL
MIC50 (MDR SA; Blood, n = 108): 0.5 µg/mL (≈ 0.309 µM)
MIC90 (MDR SA; Blood, n = 108): 0.5 µg/mL (≈ 0.309 µM)
Mode (MIC) (MDR SA; Blood, n = 108): 0.5 µg/mL
Range (MIC) (MDR SA; Blood, n = 108, in µg/mL): 0.25-4
MIC50 (MDR SA; Respiratory, N = 157): 0.5 µg/mL (≈ 0.309 µM)
MIC90 (MDR SA; Respiratory, N = 157): 0.5 µg/mL (≈ 0.309 µM)
Mode (MIC) (MDR SA; Respiratory, N = 157): 0.5 µg/mL
Range (MIC) (MDR SA; Respiratory, N = 157, in µg/mL): 0.12-1
MIC50 (MDR SA; Skin/Wound, N = 191): 0.5 µg/mL (≈ 0.309 µM)
MIC90 (MDR SA; Skin/Wound, N = 191): 0.5 µg/mL (≈ 0.309 µM)
Mode (MIC) (MDR SA; Skin/Wound, N = 191): 0.5 µg/mL
Range (MIC) (MDR SA; Skin/Wound, N = 191): ≦0.06-1
MIC50 (E. faecalis [5]; E. faecalis (445)): 1 µg/mL (≈ 0.617 µM)
MIC90 (E. faecalis [5]; E. faecalis (445)): 1 µg/mL (≈ 0.617 µM)
MIC Range (E. faecalis [5]; E. faecalis (445)): ≦0.06-4 mg/L
SMILES: CCCCCCCCCC(=O)N[C@@H](Cc1c[nH]c2ccccc12)C(=O)N[C@H](CC(N)=O)C(=O)N[C@@H](CC(=O)O)C(=O)N[C@@H]1C(=O)NCC(=O)N[C@@H](CCCN)C(=O)N[C@@H](CC(=O)O)C(=O)N[C@H](C)C(=O)N[C@@H](CC(=O)O)C(=O)NCC(=O)N[C@H](CO)C(=O)N[C@@H]([C@H](C)CC(=O)O)C(=O)N[C@@H](CC(=O)c2ccccc2N)C(=O)O[C@@H]1C [Daptomycin, daptomycin]
% Susceptible, CLSI (E. faecium [2]; [6]): 100.0/— %
% Susceptible, CLSI (E. faecium [2]; [7]): 100.0/— %
% susceptible (E. faecium [2]): 100%
susceptibility (VRE; 2012 July): borderline susceptible
% Susceptible, CLSI (S. aureus; CLSI M100-S23 breakpoints): 100.0/— %
% Resistant, EUCAST (S. aureus): 0.0%
% Susceptible, EUCAST (S. aureus): 100.0%
% Susceptible, CLSI (E. faecalis [5]; [8]): 100.0/— %
% susceptible (E. faecalis [5]): 100%

MIC50 ([1]; Table 2): 0.5 µg/mL (≈ 1.48 µM)
MIC90 ([1]; Table 2): 1 µg/mL (≈ 2.96 µM)
MIC50 (E. faecium [2]; [6]): 1 µg/mL (≈ 2.96 µM)
MIC90 (E. faecium [2]; [6]): 2 µg/mL (≈ 5.93 µM)
MIC90 (E. faecium [2]; [7]): 1 µg/mL (≈ 2.96 µM)
MIC Range (E. faecium [2]; [6]): 0.5 to 8 µg/mL
MIC 50% (E. faecium [2]; [7]): 1 µg/mL (≈ 2.96 µM)
MIC Range (E. faecium [2]; [7]): 0.25 to 2 µg/mL
MIC90 (S. pyogenes; Blood, N 53): 1 µg/mL (≈ 2.96 µM)
MIC90 (S. pyogenes; Non-Blood, N 282): 1 µg/mL (≈ 2.96 µM)
MIC90 (E. faecalis [3]; Blood, N 116): 2 µg/mL (≈ 5.93 µM)
MIC90 (E. faecalis [3]; Non-Blood, N 411): 2 µg/mL (≈ 5.93 µM)
MIC90 (E. faecium [4]; Blood, N 84): 2 µg/mL (≈ 5.93 µM)
MIC90 (E. faecium [4]; Non-Blood, N 92): 2 µg/mL (≈ 5.93 µM)
MIC90 (S. agalactiae; Blood, N 100): 1 µg/mL (≈ 2.96 µM)
MIC90 (S. agalactiae; Non-Blood, N 355): 1 µg/mL (≈ 2.96 µM)
MIC50 (S. aureus): 1 µg/mL (≈ 2.96 µM)
MIC90 (S. aureus): 1 µg/mL (≈ 2.96 µM)
MIC Range (S. aureus): 0.25 to 2 µg/mL
MIC50 (MDR SA; Blood, n = 108): 2 µg/mL (≈ 5.93 µM)
MIC90 (MDR SA; Blood, n = 108): 2 µg/mL (≈ 5.93 µM)
Mode (MIC) (MDR SA; Blood, n = 108): 2 µg/mL
MIC50 (MDR SA; Respiratory, N = 157): 2 µg/mL (≈ 5.93 µM)
MIC90 (MDR SA; Respiratory, N = 157): 2 µg/mL (≈ 5.93 µM)
Mode (MIC) (MDR SA; Respiratory, N = 157): 2 µg/mL
MIC50 (MDR SA; Skin/Wound, N = 191): 2 µg/mL (≈ 5.93 µM)
MIC90 (MDR SA; Skin/Wound, N = 191): 2 µg/mL (≈ 5.93 µM)
Mode (MIC) (MDR SA; Skin/Wound, N = 191): 2 µg/mL
MIC50 (E. faecalis [5]; E. faecalis (445)): 1 µg/mL (≈ 2.96 µM)
MIC90 (E. faecalis [5]; E. faecalis (445)): 2 µg/mL (≈ 5.93 µM)
MIC Range (E. faecalis [5]; E. faecalis (445)): 0.5 to 2 µg/mL
SMILES: CC(=O)NC[C@H]1CN(c2ccc(N3CCOCC3)c(F)c2)C(=O)O1 [Linezolid, linezolid]
% Resistant, CLSI ([1]; CLSI M100-S23 breakpoints): 0.8%
% Resistant, CLSI (E. faecium [2]; [6]): 3.8%
% Susceptible, CLSI (E. faecium [2]; [6]): 96.2%
% Resistant, EUCAST (E. faecium [2]; [6]): 3.8%
% Susceptible, EUCAST (E. faecium [2]; [6]): 96.2%
% Resistant, CLSI (E. faecium [2]; [7]): 0.0%
% Susceptible, CLSI (E. faecium [2]; [7]): 100.0%
% Resistant, EUCAST (E. faecium [2]; [7]): 0.0%
% Susceptible, EUCAST (E. faecium [2]; [7]): 100.0%
% susceptible (E. faecium [2]): 96.2%
susceptibility (VRE; 2012 July): susceptible
% Resistant, CLSI (S. aureus; CLSI M100-S23 breakpoints): 0.0%
% Susceptible, CLSI (S. aureus; CLSI M100-S23 breakpoints): 100.0%
% Resistant, EUCAST (S. aureus): 0.0%
% Susceptible, EUCAST (S. aureus): 100.0%
% Resistant, CLSI (E. faecalis [5]; [8]): 0.0%
% Susceptible, CLSI (E. faecalis [5]; [8]): 100.0%
% Resistant, EUCAST (E. faecalis [5]; [9]): 0.0%
% Susceptible, EUCAST (E. faecalis [5]; [9]): 100.0%
% susceptible (E. faecalis [5]): 100%
